Experimental findings from patent US11116740B2, “Methods for use in support of planned supplement and food ingredient products for diagnosis and treatment of metabolic syndrome” (priority 2015, dated 2021) are described below.

The nature of the series: Serum fatty acid metabolomics (UPLC-MS/MS), feeding study. As for the experimental part: This study examined global metabolic profiles in six dolphins (“Group A dolphins”). The dolphins lived in netted enclosures within San Diego Bay. The dolphins started on a 100% capelin diet. Group A dolphins were fed one-third of their daily diet in the morning after their routine overnight fast and 2h postprandial, in-water, and trained blood samples were drawn (typically near 10:00 a.m.). An additional four dolphins (“Group C dolphins”) were fed the capelin diet.
Two hour post-prandial samples were collected from the dolphins at baseline (week 0) and at four time points following the switch to the modified diet: 6, 12, 18, and 24 weeks. Routine monthly samples collected from four reference dolphins that were housed in the same environment as the Group A dolphins were assessed for glucose, triglycerides, ferritin, and percent serum fatty acids.
Sample Preparation: Samples were prepared using the automated MicroLab STAR® system from Hamilton Company. Several recovery standards were added prior to the first step in the extraction process for QC purposes. Proteins were precipitated with methanol under vigorous shaking for 2 min (Glen Mills GenoGrinder 2000) followed by centrifugation. The resulting extract was divided into five fractions: two for analysis by two separate reverse phase (RP)/UPLC-MS/MS methods with positive ion mode electrospray ionization (ESI), one for analysis by RP/UPLC-MS/MS with negative ion mode ESI, one for analysis by HILIC/UPLC-MS/MS with negative ion mode ESI, and one sample was reserved. Samples were placed briefly on a TurboVap® (Zymark) to remove the organic solvent. The sample extracts were stored overnight under nitrogen before preparation for analysis.
Ultrahigh Performance Liquid Chromatography-Tandem Mass Spectroscopy (UPLC-MS/[…]): Each of four methods utilized a Waters ACQUITY ultra-performance liquid chromatography (UPLC) and a Thermo Scientific Q-Exactive high resolution/accurate mass spectrometer interfaced with a heated electrospray ionization (HESI-II) source and Orbitrap mass analyzer operated at 35,000 mass resolution. A sample extract was dried, then reconstituted in solvents compatible to each of the four methods. Each reconstitution solvent contained a series of standards at fixed concentrations to ensure injection and chromatographic consistency. A first aliquot was analyzed using acidic positive ion conditions, chromatographically optimized for more hydrophilic compounds. In this method, the extract was gradient eluted from a C18 column (Waters UPLC BEH C18-2. 1×100 mm, 1.7 μm) using water and methanol, containing 0.05% perfluoropentanoic acid (PFPA) and 0.1% formic acid (FA). A second aliquot was also analyzed using acidic positive ion conditions, however it was chromatographically optimized for more hydrophobic compounds. In this method, the extract was gradient eluted from the same afore mentioned C18 column using methanol, acetonitrile, water, 0.05% PFPA and 0.01% FA and was operated at an overall higher organic content. A third aliquot was analyzed using basic negative ion optimized conditions using a separate dedicated C 18 column. The basic extracts were gradient eluted from the column using methanol and water, however with 6.5 mM Ammonium Bicarbonate at pH 8. […] The MS analysis alternated between MS and data-dependent MSn scans using dynamic exclusion. The scan range varied slighted between methods but covered 70-1000 m/z.
Data Extraction and Compound Identification: Raw data was extracted, peak-identified and QC processed using Metabolon's hardware and software. The systems were based on a web-service platform utilizing Microsoft's .NET technologies, which ran on high-performance application servers and fiber-channel storage arrays in clusters to provide active failover and load-balancing. Compounds were identified by comparison to library entries of purified standards or recurrent unknown entities.

The mark [1] stands for this setting: Group A dolphins, modified diet, proportional to value at outset of study.
Setting [2] is: bottlenose dolphin (Tursiops truncatus), in vivo, 6 weeks.
Setting [3] is: bottlenose dolphin (Tursiops truncatus), in vivo, 18 weeks.
Setting [4] is: bottlenose dolphin (Tursiops truncatus), in vivo, 24 weeks.

Regarding “docosapentaenoate [docosapentaenoate (n3 DPA; 22:5n3)]”, under “in vivo”, the “serum concentration 6 wk / 0 wk” value is recorded as 1.13, the “serum concentration 12 wk / 0 wk” value is recorded as 1.37, the “serum concentration 18 wk / 0 wk” value amounted to 1.27 and the “serum concentration 24 wk / 0 wk” value was 0.78.

Consider `CCCCCCCC/C=C\CCCCCCCCCCCCCC(=O)O` [nervonate (24:ln9)*, nervonate], for which, under “in vivo”, the “serum concentration 6 wk / 0 wk” value is 0.71, the “serum concentration 12 wk / 0 wk” value was 1.41, the “serum concentration 18 wk / 0 wk” value was determined as 0.74 and the “serum concentration 24 wk / 0 wk” value is reported as 0.62.

As for `CCCCCCCC/C=C\CCCCCCCCCCCC(=O)O` [erucate (22:ln9), erucate], for the setting “in vivo”, the “serum concentration 6 wk / 0 wk” value is 0.71, the “serum concentration 12 wk / 0 wk” value came to 0.81, the “serum concentration 18 wk / 0 wk” value was determined as 0.68 and the “serum concentration 24 wk / 0 wk” value was 0.45.

`CCCCCCCC(=O)O` [caprylate (8:0), caprylate]: under setting [1], the “serum concentration 6 wk / 0 wk” value is recorded as 1.1, the “serum concentration 12 wk / 0 wk” value is on record as 1.07, the “serum concentration 18 wk / 0 wk” value is on record as 0.96 and the “serum concentration 24 wk / 0 wk” value is 1.12.

In the case of `CC/C=C\C/C=C\C/C=C\CCCCCCCCCCCC(=O)O` [docosatrienoate (22:3n3), docosatrienoate], under “in vivo”, the “serum concentration 6 wk / 0 wk” value came to 1.08, the “serum concentration 12 wk / 0 wk” value is on record as 2.06, the “serum concentration 18 wk / 0 wk” value is recorded as 1.96 and the “serum concentration 24 wk / 0 wk” value was determined as 1.06.

`CCCCCCC=CCCCCCCCCC(=O)O` [10-heptadecenoate (17:ln7), 10-heptadecenoate]: for the setting “in vivo”, the “serum concentration 6 wk / 0 wk” value came to 1.12, the “serum concentration 12 wk / 0 wk” value is 1.38, the “serum concentration 18 wk / 0 wk” value is recorded as 1.35 and the “serum concentration 24 wk / 0 wk” value turned out to be 0.87.

In the case of `CCCCCC(=O)O` [caproate (6:0), caproate], under setting [1], the “serum concentration 6 wk / 0 wk” value was 0.98, the “serum concentration 12 wk / 0 wk” value turned out to be 1.01, the “serum concentration 18 wk / 0 wk” value is recorded as 0.92 and the “serum concentration 24 wk / 0 wk” value is 0.76.

As to `CCCCCCCCCCCCCC(=O)O` [myristate (14:0), myristate], under setting [1], the “serum concentration 6 wk / 0 wk” value came to 0.8, the “serum concentration 12 wk / 0 wk” value came out at 0.87, the “serum concentration 18 wk / 0 wk” value is reported as 0.74 and the “serum concentration 24 wk / 0 wk” value is reported as 0.58.

As for `CC/C=C\C/C=C\C/C=C\C/C=C\C/C=C\C/C=C\CCC(=O)O` [docosahexaenoate (DHA; 22:6n3), docosahexaenoate], under setting [1], the “serum concentration 6 wk / 0 wk” value came out at 1.05, the “serum concentration 12 wk / 0 wk” value came out at 1.23, the “serum concentration 18 wk / 0 wk” value stood at 1.06 and the “serum concentration 24 wk / 0 wk” value came out at 0.74.

Regarding `CCCCC/C=C\C/C=C\CCCCCCCCCC(=O)O` [dihomo-linoleate (20:2n6), dihomo-linoleate], for the setting “in vivo”, the “serum concentration 6 wk / 0 wk” value stood at 0.9, the “serum concentration 12 wk / 0 wk” value was 1.12 and the “serum concentration 24 wk / 0 wk” value amounted to 0.73.

As for `CCCCC/C=C\C/C=C\C/C=C\C/C=C\CCCCCC(=O)O` [adrenate (22:4n6), all-cis-7,10,13,16-docosatetraenoic acid], where the note is “in vivo”, the “serum concentration 6 wk / 0 wk” value is listed as 1.51, the “serum concentration 12 wk / 0 wk” value is recorded as 2.17, the “serum concentration 18 wk / 0 wk” value came out at 2.82 and the “serum concentration 24 wk / 0 wk” value turned out to be 1.73.

Regarding `CCCC/C=C\CCCCCCCC(=O)O` [myristoleate (14:ln5), myristoleate], under “in vivo”, the “serum concentration 6 wk / 0 wk” value is reported as 1.45, the “serum concentration 12 wk / 0 wk” value was 1.55, the “serum concentration 18 wk / 0 wk” value stood at 0.97 and the “serum concentration 24 wk / 0 wk” value is 1.02.

As for `CCCCCC/C=C\CCCCCCCC(=O)O` [palmitoleate (16:ln7), palmitoleate], for the setting “in vivo”, the “serum concentration 6 wk / 0 wk” value was found to be 0.85, the “serum concentration 12 wk / 0 wk” value is recorded as 0.99, the “serum concentration 18 wk / 0 wk” value was determined as 0.76 and the “serum concentration 24 wk / 0 wk” value came to 0.54.

For `CC/C=C\C/C=C\C/C=C\C/C=C\CCCCC(=O)O` [stearidonate (18:4n3), stearidonate], under “in vivo”, the “serum concentration 12 wk / 0 wk” value was determined as 0.71, the “serum concentration 18 wk / 0 wk” value was 0.61 and the “serum concentration 24 wk / 0 wk” value worked out at 0.58.

For the compound `CCCCCCC=CCCCC(=O)O` [5-dodecenoate (12:ln7), 5-dodecenoate], where the note is “in vivo”, the “serum concentration 6 wk / 0 wk” value is recorded as 1.49, the “serum concentration 12 wk / 0 wk” value amounted to 1.67, the “serum concentration 18 wk / 0 wk” value was determined as 1.08 and the “serum concentration 24 wk / 0 wk” value was determined as 1.11.

Take `CCCCC/C=C\C/C=C\CCCCCCCC(=O)O` [linoleate (18:2n6), linoleate]: the “serum concentration 6 wk / 0 wk” value under setting [2] is reported as 0.87. Also, the “serum concentration 12 wk / 0 wk” value (bottlenose dolphin (Tursiops truncatus), in vivo, 12 weeks) was 0.93. In addition, the “serum concentration 18 wk / 0 wk” value under setting [3] is listed as 0.76. The “serum concentration 24 wk / 0 wk” value under setting [4] came out at 0.66.

As to `CCCCCCCCCCCCCCCCCCC(=O)O` [nonadecanoate (19:0), nonadecanoate], where the note is “in vivo”, the “serum concentration 6 wk / 0 wk” value was determined as 1.22, the “serum concentration 12 wk / 0 wk” value is on record as 1.65, the “serum concentration 18 wk / 0 wk” value was 1.79 and the “serum concentration 24 wk / 0 wk” value was found to be 1.28.

For `CCCCCCCCC=CCCCCCCCCC(=O)O` [10-nonadecenoate (19:ln9), 10-nonadecenoate], under “in vivo”, the “serum concentration 6 wk / 0 wk” value worked out at 1.05, the “serum concentration 12 wk / 0 wk” value was determined as 1.28, the “serum concentration 18 wk / 0 wk” value was found to be 1.17 and the “serum concentration 24 wk / 0 wk” value came to 0.8.

Regarding eicosenoate [eicosenoate (20:1)], for the setting “in vivo”, the “serum concentration 6 wk / 0 wk” value is 0.72, the “serum concentration 12 wk / 0 wk” value is 0.81, the “serum concentration 18 wk / 0 wk” value amounted to 0.72 and the “serum concentration 24 wk / 0 wk” value amounted to 0.43.

On to `CCCCCCCCC(=O)O` [perlargonate (9:0), nonanoic acid], for which the “serum concentration 6 wk / 0 wk” value under setting [2] was 1.26. Further, the “serum concentration 18 wk / 0 wk” value under setting [3] turned out to be 1.56. The “serum concentration 24 wk / 0 wk” value under setting [4] was determined as 1.41.

Take `CCCCC/C=C\C/C=C\C/C=C\C/C=C\C/C=C\CCC(=O)O` [docosapentaenoate (n6 DPA; 22:5n6), all-cis-4,7,10,13,16-docosapentaenoic acid]: for the setting “in vivo”, the “serum concentration 6 wk / 0 wk” value is listed as 1.68, the “serum concentration 12 wk / 0 wk” value is 2.5, the “serum concentration 18 wk / 0 wk” value is 2.33 and the “serum concentration 24 wk / 0 wk” value was determined as 2.09.

As for `CCCCCCCCCCCCCCC(=O)O` [pentadecanoate (15:0), pentadecanoate], where the note is “in vivo”, the “serum concentration 6 wk / 0 wk” value stood at 1.01, the “serum concentration 12 wk / 0 wk” value worked out at 1.27, the “serum concentration 18 wk / 0 wk” value is reported as 1.42 and the “serum concentration 24 wk / 0 wk” value is listed as 0.97.

In the case of “oleate/vaccenate [oleate/vaccenate (18:1)]”, under “in vivo”, the “serum concentration 6 wk / 0 wk” value was determined as 0.98, the “serum concentration 12 wk / 0 wk” value was found to be 1.04, the “serum concentration 18 wk / 0 wk” value is on record as 0.84 and the “serum concentration 24 wk / 0 wk” value was found to be 0.64.

Regarding `CCCCCCC(=O)O` [heptanoate (7:0), heptanoate], under setting [1], the “serum concentration 6 wk / 0 wk” value came out at 1.42, the “serum concentration 12 wk / 0 wk” value came to 1.02, the “serum concentration 18 wk / 0 wk” value is 1.23 and the “serum concentration 24 wk / 0 wk” value is 1.21.

Turning to linolenate, under “in vivo”, the “serum concentration 6 wk / 0 wk” value stood at 1.13, the “serum concentration 12 wk / 0 wk” value is reported as 1.1, the “serum concentration 18 wk / 0 wk” value is on record as 0.97 and the “serum concentration 24 wk / 0 wk” value worked out at 0.98.
